In patent US9221800B2, “Isoxazole treatments for diabetes” (The Board of Regents of the University of Texas System, priority 2011, dated 2015):

Experiments:
human islets = test: Gene expression by quantitative RT-PCR in cultured human islets; type: cell-based
Description: (§1) MIN6 cells were cultured in DMEM (Gibco), containing 25 mM glucose, 10% fetal bovine serum, 10 mM Hepes pH 7.4, 10.2 mM L-glutamine, […] sodium pyruvate, 2.5 mM β-mercaptoethanol, 100 U/ml penicillin and 100 μg/ml streptomycin at 37° C. in 10% CO2. Human islets were obtained from the ICR Basic Science Islet Distribution and from the University of Alabama, Birmingham Islet Resource Facility and were cultured in RPMI 1640 with 11 mM glucose for up to 1 year. The medium was changed twice weekly and the islets were subcultured when they reached 90% confluence. For Isx treatments, cells were incubated in medium containing either Isx or the equivalent volume of DMSO vehicle (0.04%). To measure GSIS, cells were placed in Krebs-Ringer bicarbonate/Hepes containing 0.1% bovine serum albumin and 2 mM glucose for 2 h, and stimulated for 15 min with 20 mM glucose, a 1× amino-acid mixture (concentrations as in DMEM), or 50 nM Exendin-4. U0126 (10 μM), nifedipine (3 μM), BAPTA (10 μM), wortmanin (0.5 μM) or FK506 (0.1 μM) were added for 1-24 h as indicated.
Total RNA was extracted from human islet preparations with TRI reagent according to manufacturer's protocol (Ambion). cDNA was prepared from total RNA by a mixture of random hexamer- and oligo-dT-primed reverse transcription (iScript Biorad). The expression of insulin and glucagon relative to 18S RNA was evaluated by TaqMan assays (Applied Biosystems). Relative expression of pancreatic factors was determined using Power SYBR Green PCR Master Mix (Applied Bio systems). Primer sequences for qRT-PCR are in STable 1. SYBR Green and TaqMan probe-based PCR was performed using the ABI 7500 DNA Sequence Detection System with standard fluorescent chemistries and thermal cycling conditions specified by the manufacturer: 50° C. for 2 min, 95° C. for 10 min for one cycle and an additional 40 cycles at 95° C. for 15 sec, and then 58° C. for 1 min.

MIN6 cells [1] = test: Quantitative RT-PCR of endogenous insulin gene expression in MIN6 cells; type: cell-based, mouse
Description: FIGS. 2A-E. Isx (LSH-1) activates insulin expression and improves β cell function in MIN6 cells. (FIG. 2A) Dose-response relationship of MIN6 cells treated with 5-80 μM Isx for 24 h or DMSO (0.08%—similar to the highest concentration of Isx). Whole cell lysates (40 μg) were subjected to immunoblotting using antibodies against BETA2NeuroD1, MafA, PDX-1, pERK1/2 (pT183/pY185), acetylated histones ACH4-K5K8K12K16 and ACH3K9 and total histone H3. (FIG. 2B) Quantitative RT-PCR of murine insulin1 and insulin2 gene expression in MIN6 cells treated with Isx for 24 h as in FIG. 2A. (FIG. 2C) GSIS in 15 min from MIN6 cells pretreated with Isx or vehicle for 48 h in the presence or absence of the MEK1/2 inhibitor U0126 for 24 h. (FIG. 2D) Insulin content measured by ELISA in MIN6 cells treated with Isx for 24 or 48 h. […]
Total RNA was extracted from human islet preparations with TRI reagent according to manufacturer's protocol (Ambion). cDNA was prepared from total RNA by a mixture of random hexamer- and oligo-dT-primed reverse transcription (iScript Biorad). The expression of insulin and glucagon relative to 18S RNA was evaluated by TaqMan assays (Applied Biosystems). Relative expression of pancreatic factors was determined using Power SYBR Green PCR Master Mix (Applied Bio systems). […]

MIN6 cells [2] = test: Insulin secretion (GSIS) and insulin content in MIN6 cells; type: cell-based, mouse
Description: as §1

[3] = test system: rat insulin 1 promoter-luciferase reporter (pGL3-rIns -410, +1); test: Insulin promoter luciferase reporter assay in HEK293 cells; type: cell-based
Description: HEK 293 cells (0.15×10^6 cells) in triplicate were transfected with the pGL3-rIns reporter construct (0.1 μg/well) (Stratagene) and cotransfected with 0.5 μg/well of either empty vector (pcDNA3.1) or vectors encoding BETA2:myc, MafA:myc or PDX-1:myc using Lipofectamine 2000 (Invitrogen). After 24 h, cells were stimulated with 20 μM Isx or DMSO for another 24 h. Luciferase activity was measured using the dual luciferase reporter system (Promega) with Renilla Luciferase as an internal control.

insulin gene promoter = test: ChIP analysis of association with the insulin promoter in MIN6 cells; type: cell-based, mouse
Description: ChIP was as described (Lawrence et al., 2008) with the following modifications. Chromatin was cross-linked with 1% formaldehyde and sonicated with a Bioruptor 200 (Diagenode) in an ice cold water bath. Antibodies immobilized on protein A-Sepharose beads were used for immunoprecipitation. ChIP products were analyzed by real-time Q-PCR as previously described for real-time PCR analysis (Lawrence et al., 2008) using the following primers (5′-CAGACCTAGCACCAGGG-3′ (SEQ ID NO:1) and 5′-GGACTTTGCTGTTTGTCCC-3′ (SEQ ID NO:2)) to amplify the −157/−50 fragment of the mouse insulin promoter encompassing the C1 (MafA), E1 (BETA2) and A1 (PDX-1) binding sites. The results were expressed relative to input and presented as mean+/− SEM of at least two independent experiments in triplicate.

[4] = human islets in culture for 6 months, Isx for 1-2 days (40 μM, FIG. 1A)
[5] = islets in culture for one year, 40 μM Isx 2-8 days

expression of glucokinase and Glut2 (human islets; islets in culture for one year, peaking after 4 days of exposure): increased markedly
Compound: O=C(NC1CC1)c1cc(-c2cccs2)on1 [Isx, N-cyclopropyl-5-(thiophen-2-yl)isoxazole-3-carboxamide]
glucagon mRNA decrease (human islets; [4]): ~80%
preproinsulin mRNA (human islets; [4]): large increase
PCNA and Oct4 mRNA expression (human islets; islets in culture for one year): Neither PCNA, an indicator of proliferation, nor Oct4, a factor associated with stem cells, showed consistent or substantial changes in mRNA expression
increases in PDX-1, the Hnfs, and Isl1 mRNA (human islets; [5]): relatively small
increases in the other factors (mRNA; other than PDX-1, the Hnfs, Isl1) (human islets; [5]): more than 10 fold
Preproinsulin mRNA increase (human islets; islets in culture for one year, after several days of Isx exposure (FIG. 1D)): ≥ 50 fold
Preproinsulin mRNA increase (human islets; islets in culture for one year, at 24 h (FIG. 1D)): 10 fold
increase in preproinsulin mRNA (MIN6 cells [1]; Isx 24 h (FIG. 2B)): ≤ 4 fold
concentration for optimal activation of endogenous insulin gene expression (MIN6 cells [1]; MIN6 cells (FIG. 12)): 20 µM
insulin content (MIN6 cells [2]; Isx 24 or 48 h (FIG. 2D)): relatively small increase
Glucose-stimulated insulin secretion (GSIS) increase (MIN6 cells [2]; Isx pretreatment 48 h (FIG. 2C)): ~4 fold
increase of stimulation of insulin secretion by glucose, amino acids and exendin-4, individually and in combination (MIN6 cells [2]; Isx pretreatment 48 h (FIG. 2E)): 2 to 5 fold
increase of the activity of PDX-1 (insulin gene reporter) by Isx ([3]; 20 μM Isx 24 h): two-fold or less
Insulin gene reporter activity increase by either BETA2 or MafA in the presence of Isx ([3]; 20 μM Isx 24 h (FIG. 3A, FIG. 7)): ≥ 4 fold
Chromatin recruitment of p300 to the insulin promoter upon stimulation by glucose (insulin gene promoter; Isx pretreatment 24 h): increased
chromatin binding of BETA2 and MafA to the insulin gene promoter (insulin gene promoter; compared with glucose stimulation (FIGS. 3D-E)): Comparable or greater
